The values below come from US10894042B2, “Methods and pharmaceutical compositions for the treatment of cancer” (INSERM (INSTITUT NATIONAL DE LA SANTÉ ET DE LA RECHERCHE …, priority 2014, dated 2021).

Where no end group is shown, it is not given here.

In assay [1] the test system is human colon cancer cells (LoVo cells). Description: Growth of tumors from human colon cancer cell xenografts in nude mice. It counts as in vivo. The note with it: for tumor growth versus PBS control mice: LoVo xenograft in nude mice, 100 μg intraperitoneally 2 times/week, 48 days of treatment. As to the method:
FIG. 4: Effect of ip inoculation of OxA (▴), Suvorexant (◯) and Almorexant (Δ) on the growth of tumors developed by xenografting human colon cancer cells in nude mice. A. LoVo cells were inoculated in the flank of nude mice at day 0. Mice were injected 2 times/week intraperitoneally with 100 μg of OxA, Suvorexant or Almorexant in 100 μl solutions or with 100 μl of PBS (●) for controls. After 48 days of treatment, mice were sacrificed and tumor volume and weight were then recorded. The development of tumors was followed by caliper measurement. B. treatment (2 injections/week) with various doses of Almorexant (1 mg/kg (□), 2.5 mg/kg (Δ) or 5 mg/kg (◯)) compared to OxA treatment (5 mg/kg, ▴). Control was performed by injection of 100 μl PBS (●).
The inventors investigated the effect of intraperitoneal inoculation of OxA, Suvorexant and Almorexant on the growth of tumors developed by xenografting human colon cancer cells (LoVo cells) in nude mice.

For assay [2], the target named is T1, OX1R (Homo sapiens, UniProt O43613).
T1 construct: HEK cells expressing recombinant native OX1R (HEK-OX1R) cells were seeded in 96-wells plate; expressed in transfected cells; host or cells: HEK cells (HEK-OX1R)
T1 sequence (O43613 1-425): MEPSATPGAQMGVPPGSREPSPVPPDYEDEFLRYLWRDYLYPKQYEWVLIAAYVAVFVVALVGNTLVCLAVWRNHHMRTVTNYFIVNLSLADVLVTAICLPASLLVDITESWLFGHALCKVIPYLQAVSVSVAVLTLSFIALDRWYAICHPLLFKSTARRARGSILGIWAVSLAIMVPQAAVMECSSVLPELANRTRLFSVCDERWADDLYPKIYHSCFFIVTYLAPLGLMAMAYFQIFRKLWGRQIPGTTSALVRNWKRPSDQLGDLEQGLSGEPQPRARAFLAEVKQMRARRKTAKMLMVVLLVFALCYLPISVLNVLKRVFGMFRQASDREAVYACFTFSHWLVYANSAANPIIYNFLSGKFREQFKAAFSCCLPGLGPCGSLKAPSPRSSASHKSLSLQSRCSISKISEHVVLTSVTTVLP
Description: Ca2+ mobilization assay in HEK-OX1R cells (FluoForte). It counts as cell-based. As to the method: FIG. 1: Effect of orexin-A and SB408124 antagonist on Ca2+ mobilization in HEK-OX1R cells. Top, HEK-OX1R cells were incubated with fluorescence probe (FluoForte) for 45 min. at 37° C. according to FluoForte calcium assay kit (Enzo Life Sciences). 1 μM of OxA was added to cells and fluorescence emission was measured on TECAN Infinite 200 fluorospectrophotometer. Bottom, HEK-OX1R cells were incubated with fluorescence probe (FluoForte) for 45 min. at 37° C. and then incubated with 1 μM of SB408124 for 1 h at 37° C. After pre-incubation, 1 μM of OxA was added to cells and fluorescence emission was measured.
HEK cells expressing recombinant native OX1R (HEK-OX1R) cells were seeded in 96-wells plate, grown and maintained at 37° C. in a humidified 5% CO2/air incubator. 80,000 cells/well were incubated with FluoForte probe according to FluoForte calcium assay kit (ENZO life Sciences, Farmingdale, N.Y., USA) for 45 min. at 37° C. and then incubated with or without 1 μM of SB408124 antagonist for 1 h at 37° C. After pre-incubation, 1 μM of OxA was added and fluorescence was determined using TECAN Infinite 200 fluorospectrophotometer.

In assay [3] the test system is HEK-OX1R cells. Description: Cell growth determination, HEK-OX1R cells. It counts as cell-based. The note with it: 48 hr incubation, viable cells counted, OxA 0.1 μM, SB408124 increasing concentrations. As to the method:
(§1) FIG. 2: Determination of the inhibition of cellular growth of HEK-OX1R cells and colon adenocarcinoma cells (HT-29) induced by […] of OxA or various concentrations of SB408124 antagonist. HEK-OX1R cells (black column) and HT-29 cells (white column) were incubated with 0.1 μM of OxA and indicated increasing concentration of SB408124, and cells were counted after 48 hr incubation. Results are expressed as the percentage of total viable cells.
(§2) HEK-OX1R cells or colon adenocarcinoma HT-29 cells were seeded, grown and maintained at 37° C. in a humidified 5% CO2/air incubator. After 24 hr culture, cells were treated with or without Orexin-A peptide or SB408124 antagonist, previously dissolved in DMSO, to be tested at the concentration indicated in the figure legends. After 48 hr of treatment, adherent cells were harvested by TriplE (Life Technologies, Saint Aubin, France) and manually counted. Apoptosis was determined using the Guava PCA system and the Guava nexin kit.

In assay [4] the test system is colon adenocarcinoma HT-29 cells. Description: Cell growth determination, HT-29 cells. Format: cell-based. The note with it: 48 hr incubation, viable cells counted, OxA 0.1 μM, SB408124 increasing concentrations. As to the method: as §1, §2
Assay [5] relates to OX1R expressing colon adenocarcinoma cells, HT-29. As to the kind of experiment: Apoptosis assay (annexin V-PE binding, Guava nexin kit), HT-29 cells. Format: cell-based. The note with it: for apoptosis (annexin V-PE binding): HT-29 cells, 48 h, 1 μM orexin-A or various concentrations of SB408124. As to the method:
FIG. 3: Effect of orexin-A and SB408124 antagonist on apoptosis in OX1R expressing colon adenocarcinoma cells, HT-29. HT-29 cells were challenged with 1 μM orexin-A or various concentration of SB408124 for 48 h. Apoptosis was measured by determination of annexin V-PE binding, and results are expressed as the percentage of apoptotic cells. Results are means±SE of three experiments. ***P<0.001.
as §2

For `CNC(=O)[C@@H](c1ccccc1)N1CCc2cc(OC)c(OC)cc2[C@@H]1CCc1ccc(C(F)(F)F)cc1` [Almorexant], the “tumor growth versus PBS control mice” value in assay [1] is listed as “significantly smaller tumors”. The “tumor growth inhibition, dose dependence” value in assay [1] (LoVo xenograft in nude mice, 1, 2.5 or 5 mg/kg, 2 injections/week) is “induce in a dose-dependent manner tumor growth inhibition”.
As to `Cc1cc(NC(=O)Nc2ccc(N(C)C)cc2)c2cc(F)cc(F)c2n1` [SB408124], the “agonist/antagonist character for OX1R-mediated calcium mobilization” value in assay [2] was “full antagonist”. In addition, in assay [2] (preincubation with 1 μM SB408124 for 1 h at 37° C., then 1 μM OxA), the “effect on OxA-induced Ca2+ mobilization” value is given as “totally abolished”. The “inhibition of cellular growth” value in assay [3] and in assay [4] was “strong inhibition in a dose-dependent manner” throughout. Also, in assay [5], the “apoptosis (annexin V-PE binding)” value was “induce in a dose-dependent manner cell apoptosis”. The “agonist/antagonist character for OX1R-mediated mitochondrial apoptosis” value in assay [5] (colon cancer cell line) was “full agonist”.
Take `Cc1ccc(-n2nccn2)c(C(=O)N2CCN(c3nc4cc(Cl)ccc4o3)CC[C@H]2C)c1` [Suvorexant]: the “tumor growth versus PBS control mice” value in assay [1] was “significantly smaller tumors”.
Consider “OxA: orexin A, a 33 amino acid neuropeptide, the natural OX1R agonist (QPLPDCCRQKTCSCRLYELLHGAGNHAAGILTL; ends and bridges not checked; cysteine pairing not given here; UniProt O43612 34-66, looked up)”, for which the “Ca2+ mobilization” value in assay [2] (1 μM OxA, fluorescence (FluoForte)) is “large and transient”. Moreover, the “inhibition of cellular growth” value in assay [3] and in assay [4] was “strong inhibition” each time. In assay [5], the “apoptosis (annexin V-PE binding)” value was “induced an apoptotic effect”. In addition, in assay [1], the “tumor growth versus PBS control mice” value is recorded as “significantly smaller tumors”.
